Test results: the NIST ThermoML archive (doi:10.1021/je800026p)
± gives the expanded uncertainty stated by the source.

Experiment: xn = mol fraction of the nth substance listed
Settings: 101 kPa, Liquid; for mass density: Vibrating tube method; for speed of sound: Sing-around technique in a fixed-path interferometer

CCCCCCOCCOCCO [2-(2-hexyloxyethoxy)ethanol] + CCCCNCCCC
mass density (298.15 K, x1 = 0.0974): 779.614 ± 0.61 kg/m3
mass density (298.15 K, x1 = 0.1441): 789.859 ± 0.62 kg/m3
mass density (298.15 K, x1 = 0.1908): 799.885 ± 0.63 kg/m3
mass density (298.15 K, x1 = 0.253): 812.825 ± 0.64 kg/m3
mass density (298.15 K, x1 = 0.2986): 821.948 ± 0.65 kg/m3
mass density (298.15 K, x1 = 0.3606): 833.834 ± 0.66 kg/m3
mass density (298.15 K, x1 = 0.4018): 841.423 ± 0.67 kg/m3
mass density (298.15 K, x1 = 0.4584): 851.46 ± 0.68 kg/m3
mass density (298.15 K, x1 = 0.5091): 860.074 ± 0.68 kg/m3
mass density (298.15 K, x1 = 0.5435): 865.751 ± 0.69 kg/m3
mass density (298.15 K, x1 = 0.587): 872.72 ± 0.7 kg/m3
mass density (298.15 K, x1 = 0.6097): 876.278 ± 0.7 kg/m3
mass density (298.15 K, x1 = 0.6572): 883.547 ± 0.71 kg/m3
mass density (298.15 K, x1 = 0.7023): 890.259 ± 0.71 kg/m3
mass density (298.15 K, x1 = 0.7451): 896.459 ± 0.72 kg/m3
mass density (298.15 K, x1 = 0.8144): 906.103 ± 0.73 kg/m3
mass density (298.15 K, x1 = 0.8675): 913.137 ± 0.74 kg/m3
mass density (298.15 K, x1 = 0.9083): 918.3 ± 0.74 kg/m3
mass density (298.15 K, x1 = 0.9414): 922.323 ± 0.75 kg/m3
speed of sound (303.15 K, x1 = 0.0974): 1243.7 ± 2.1 m/s
speed of sound (303.15 K, x1 = 0.1441): 1251 ± 2.1 m/s
speed of sound (303.15 K, x1 = 0.1908): 1258.2 ± 2.1 m/s
speed of sound (303.15 K, x1 = 0.253): 1267.7 ± 2.1 m/s
speed of sound (303.15 K, x1 = 0.2986): 1274.5 ± 2.1 m/s
speed of sound (303.15 K, x1 = 0.3606): 1283.4 ± 2.1 m/s
speed of sound (303.15 K, x1 = 0.4018): 1289.3 ± 2.1 m/s
speed of sound (303.15 K, x1 = 0.4584): 1297 ± 2.1 m/s
speed of sound (303.15 K, x1 = 0.5091): 1303.8 ± 2.1 m/s
speed of sound (303.15 K, x1 = 0.5435): 1308.2 ± 2.1 m/s
speed of sound (303.15 K, x1 = 0.587): 1313.6 ± 2.1 m/s
speed of sound (303.15 K, x1 = 0.6097): 1316.4 ± 2.1 m/s
speed of sound (303.15 K, x1 = 0.6572): 1322 ± 2.1 m/s
speed of sound (303.15 K, x1 = 0.7023): 1327 ± 2.1 m/s
speed of sound (303.15 K, x1 = 0.7451): 1331.6 ± 2.1 m/s
speed of sound (303.15 K, x1 = 0.8144): 1338.5 ± 2.1 m/s
speed of sound (303.15 K, x1 = 0.8675): 1343.3 ± 2.1 m/s
speed of sound (303.15 K, x1 = 0.9083): 1346.8 ± 2.1 m/s
speed of sound (303.15 K, x1 = 0.9414): 1349.3 ± 2.1 m/s
mass density (303.15 K, x1 = 0.0974): 775.187 ± 0.61 kg/m3
mass density (303.15 K, x1 = 0.1441): 785.667 ± 0.61 kg/m3
mass density (303.15 K, x1 = 0.1908): 795.785 ± 0.62 kg/m3
mass density (303.15 K, x1 = 0.253): 808.731 ± 0.64 kg/m3
mass density (303.15 K, x1 = 0.2986): 817.838 ± 0.64 kg/m3
mass density (303.15 K, x1 = 0.3606): 829.692 ± 0.66 kg/m3
mass density (303.15 K, x1 = 0.4018): 837.274 ± 0.66 kg/m3
mass density (303.15 K, x1 = 0.4584): 847.291 ± 0.67 kg/m3
mass density (303.15 K, x1 = 0.5091): 855.914 ± 0.68 kg/m3
mass density (303.15 K, x1 = 0.5435): 861.602 ± 0.69 kg/m3
mass density (303.15 K, x1 = 0.587): 868.58 ± 0.69 kg/m3
mass density (303.15 K, x1 = 0.6097): 872.165 ± 0.7 kg/m3
mass density (303.15 K, x1 = 0.6572): 879.461 ± 0.7 kg/m3
mass density (303.15 K, x1 = 0.7023): 886.201 ± 0.71 kg/m3
mass density (303.15 K, x1 = 0.7451): 892.397 ± 0.72 kg/m3
mass density (303.15 K, x1 = 0.8144): 902.062 ± 0.73 kg/m3
mass density (303.15 K, x1 = 0.8675): 909.095 ± 0.73 kg/m3
mass density (303.15 K, x1 = 0.9083): 914.27 ± 0.74 kg/m3
mass density (303.15 K, x1 = 0.9414): 918.281 ± 0.74 kg/m3
speed of sound (308.15 K, x1 = 0.0974): 1225.3 ± 2.1 m/s
speed of sound (308.15 K, x1 = 0.1441): 1232.2 ± 2.1 m/s
speed of sound (308.15 K, x1 = 0.1908): 1239.2 ± 2.1 m/s
speed of sound (308.15 K, x1 = 0.253): 1248.7 ± 2.1 m/s
speed of sound (308.15 K, x1 = 0.2986): 1255.5 ± 2.1 m/s
speed of sound (308.15 K, x1 = 0.3606): 1264.8 ± 2.1 m/s
speed of sound (308.15 K, x1 = 0.4018): 1270.9 ± 2.1 m/s
speed of sound (308.15 K, x1 = 0.4584): 1279.1 ± 2.1 m/s
speed of sound (308.15 K, x1 = 0.5091): 1286.2 ± 2.1 m/s
speed of sound (308.15 K, x1 = 0.5435): 1290.8 ± 2.1 m/s
speed of sound (308.15 K, x1 = 0.587): 1296.5 ± 2.1 m/s
speed of sound (308.15 K, x1 = 0.6097): 1299.4 ± 2.1 m/s
speed of sound (308.15 K, x1 = 0.6572): 1305 ± 2.1 m/s
speed of sound (308.15 K, x1 = 0.7023): 1310.1 ± 2.1 m/s
speed of sound (308.15 K, x1 = 0.7451): 1314.5 ± 2.1 m/s
speed of sound (308.15 K, x1 = 0.8144): 1320.9 ± 2.1 m/s
speed of sound (308.15 K, x1 = 0.8675): 1325 ± 2.1 m/s
speed of sound (308.15 K, x1 = 0.9083): 1327.7 ± 2.1 m/s
speed of sound (308.15 K, x1 = 0.9414): 1329.5 ± 2.1 m/s
mass density (308.15 K, x1 = 0.0974): 771.079 ± 0.6 kg/m3
mass density (308.15 K, x1 = 0.1441): 781.545 ± 0.61 kg/m3
mass density (308.15 K, x1 = 0.1908): 791.662 ± 0.62 kg/m3
mass density (308.15 K, x1 = 0.253): 804.6 ± 0.63 kg/m3
mass density (308.15 K, x1 = 0.2986): 813.671 ± 0.64 kg/m3
mass density (308.15 K, x1 = 0.3606): 825.52 ± 0.65 kg/m3
mass density (308.15 K, x1 = 0.4018): 833.078 ± 0.66 kg/m3
mass density (308.15 K, x1 = 0.4584): 843.095 ± 0.67 kg/m3
mass density (308.15 K, x1 = 0.5091): 851.724 ± 0.68 kg/m3
mass density (308.15 K, x1 = 0.5435): 857.401 ± 0.68 kg/m3
mass density (308.15 K, x1 = 0.587): 864.406 ± 0.69 kg/m3
mass density (308.15 K, x1 = 0.6097): 867.972 ± 0.69 kg/m3
mass density (308.15 K, x1 = 0.6572): 875.302 ± 0.7 kg/m3
mass density (308.15 K, x1 = 0.7023): 882.052 ± 0.71 kg/m3
mass density (308.15 K, x1 = 0.7451): 888.281 ± 0.71 kg/m3
mass density (308.15 K, x1 = 0.8144): 897.98 ± 0.72 kg/m3
mass density (308.15 K, x1 = 0.8675): 905.045 ± 0.73 kg/m3
mass density (308.15 K, x1 = 0.9083): 910.231 ± 0.74 kg/m3
mass density (308.15 K, x1 = 0.9414): 914.269 ± 0.74 kg/m3
